The structures appear in SMILES notation. Counter-ions that a name gives are not always drawn. Like-named read-outs stand apart in the source and are kept apart here.

Usually solubility stands for the concentration that dissolves in the medium under given conditions. As a reminder, the half-life is the time in which the quantity being followed falls by half.

One series in a line: Solubility. In kind it is physicochemical.
Series [1] in a line: Chemical stability in buffer or water. In kind it is physicochemical. As for the experimental part:
The compound was subjected to stability studies according to the following procedures.
(§1) Stabilities of derivatives at various pHs were studied at 25° and 37°. The plasma studies were conducted at 37° in rat and human plasma. Human plasma was obtained from Watkins Hospital and rat plasma was obtained from the Animal Care Unit of the University of Kansas. The derivative concentration used was around 20-25 μg/ml. A stock solution of the compound was prepared at 0.8-1.0 mg/mL and was added to plasma to give the desired concentration (20-25 μg/mL). One hundred microliter samples were removed and was quenched with 250 uL. acetonitrile and centrifuged to precipitate the plasma proteins. The degradation kinetics were studied by HPLC plotting peak area vs. time. The t90 and t50 were calculated. Both chemical and plasma studies were followed by high performance liquid chromatography using a RP-8 column (15 cm) and a precolumn (5 cm). The detector was set at 227 nm. The mobile phase consisted of 0.02M acetate (pH 5): acetonitrile 50:50 or 35:65 and the flow rate ranged from 1-1.5 mL/min or the same solvents containing 0.001M tetrabutylammoniumydrogensulphate and a flow rate of 1 mL/min.
The identity of this peak was further confirmed by the degradation studies of the new derivatives. Thus, 2'(DMG) taxol was incubated with water at 37° and the product was concentrated and purified by preparative TLC. The product after purification was analyzed by HPLC and spectroscopic methods.

The nature of series [2]: Plasma stability, human plasma. The settings on record: 37° C. In kind it is in vitro ADME. On the procedure: as §1, with “The derivative concentration used was around 20-25 μg/ml. A stock solution of the compound was prepared at 0.8-1.0 mg/mL and was added to plasma to give the desired concentration (20-25 μg/mL).” left out
Series [3] has as its system human mammary carcinoma MX-1 xenograft. Briefly: Subrenal capsule human mammary carcinoma MX-1 xenograft in mice. The settings on record: for ANML BODY WT DIFF (test minus control) / TEST BODY WT CHG / # OF ANMLS ALIVE CALC/TOTAL / Average tumor WEIGHT CHANGE (DELTA) / Average tumor weight, FINAL: Q4D; for ANML BODY WT DIFF (test minus control) / TEST BODY WT CHG: Day 1 to 11. The source says: The procedures followed are those described at pages 23-24 of NIH Publication No. 84-2635, In Vivo Cancer Model (February 1984).
In the procedure, test groups of mice (6 mice per test group) and control groups of 12 mice per group are utilized. A tumor fragment (human mammary carcinoma MX-1 xenograft), is implanted under the membranous covering of the kidney of each mouse.
Day 0: Anesthetize animals. Record body weight (Weigh Day 1). Implant tumor, measure and record. Randomize animals after they recover from the anesthetic. Run bacterial cultures. Determine solubilities of test agent. Record deaths daily.
Day 1: Check cultures. Discard experiment if contaminated. Prepare test materials. Initiate test agent injections (in the nape of the neck) based on individual body weight. Treatment is Q4D on Days 1, 5, and 9. Prepare test agent fresh on each injection day and administer based on individual body weight for that day.
Days 5 and 9: Prepare test agent fresh on each injection day and administer based on individual body weight for that day.
Day 11: End and evaluate experiment. Record body weights (Weigh Day 2). Measure tumor in OMU's (Ocular Micrometer Unit--10 OMU's=1 mm) and record.
The parameter measured is mean tumor weight change (delta) based on length and width measurements in millimeters. Mean animal body weights are computed for Day 1 and Day 11, compute T/C for all test groups with>65% survivors on Day 11. An excessive body weight change difference (test minus control) may also be used in evaluating toxicity. The dimensions are measured and recorded in Ocular Micrometer Units (OMU). A computer is utilized for the following:
(1) Converts OMU's to millimeters (mm).
(2) Calculates tumor weights (mgs) from tumor dimensions (mm×mm) following the formula for the volume of a prolate ellipsoid: [formula] (3) Calculates the change (delta) in mean tumor weight for each group of mice:
Change in Mean Tumor Weight=Mean Tumor WeightFINAL -Mean Tumor WeightINITIAL.
(4) Calculates the change (delta) in mean tumor weight for test (T) and control (C) groups.
(5) Calculates T/C% for all test groups with>65% survivors on Final Evaluation Day: [formula]

The next series relates to microtubules. The settings on record: in vitro / cells, in words; cited from earlier work.
The test system of the next series is microtubule assembly. Briefly: In vitro microtubule assembly kinetics. It counts as biochemical. The settings on record: rank order. As for the experimental part:
(A) In vitro Microtubule Assembly Kinetics Studies
The microtubule assembly study was conducted using both 2' and 7-derivatives according to the in vitro procedures disclosed, for example, in Mellado et al., Biochemical and Biophysical Research Communications, Vol. 124, No. 2 (1984), pp. 329-336; Magri et al., J. Org. Chem., 51, 797-802 (1986); and Parness et al., Biochemical and Biophysical Research Communications, Vol. 105, No. 3, pp. 1082-1091 (1982).

For a further series, the system named is B-16 melanoma cells. Briefly: In vitro B16 melanoma cell proliferation. The settings on record: rank order. In kind it is cell-based. On the procedure:
These studies were conducted according to standard procedures as described in Donoso and Himes, Cancer Biochem. Biophysics, vol. 7, (1984), p. 133.

On to `CCN(CC)CCC(=O)O[C@@H](C(=O)O[C@H]1C[C@@]2(O)[C@@H](OC(=O)c3ccccc3)[C@@H]3[C@]4(OC(C)=O)CO[C@@H]4C[C@H](O)[C@@]3(C)C(=O)[C@H](OC(C)=O)C(=C1C)C2(C)C)[C@@H](NC(=O)c1ccccc1)c1ccccc1` [Compound 3, HCl salt of 2'-(3-(N,N-diethylamino)propionyl)taxol], for which the solubility in the series “Solubility” is listed as ~ 0.8 mg/mL. In addition, the half-life is 439 h in series [1] (0.02 M Acetate, 0.01 mg/mL, pH 3.5, 25° C.); 0.25 h in series [1] (0.02 M Phosphate, 0.02 mg/mL, pH 7.4, 25° C.); 0.07 h in series [2] (Human plasma). Moreover, the “ANML BODY WT DIFF (test minus control)” value is recorded as 1.2 in series [3] (Table 2, 4.50 mg/kg); 1.3 in series [3] (Table 2, 9.00 mg/kg); “.7” in series [3] (Table 2, 18.00 mg/kg). Besides, the “TEST BODY WT CHG” value is listed as -2.8 in series [3] (Table 2, 4.50 mg/kg); -2.7 in series [3] (Table 2, 9.00 mg/kg); -3.3 in series [3] (Table 2, 18.00 mg/kg). For the same molecule, the “# OF ANMLS ALIVE CALC/TOTAL” value in series [3] (Table 2, 4.50 mg/kg, Day 11) is listed as 5/5; in series [3] (Table 2, 9.00 mg/kg, Day 11), 5/5; in series [3] (Table 2, 18.00 mg/kg, Day 11), 3/4; in series [3] (Table 2, 36.00 mg/kg, Day 11), 0/5. Moreover, the “Average tumor WEIGHT CHANGE (DELTA)” value in series [3] (Table 2, 4.50 mg/kg, Day 11) is on record as “-.78 MGS”; in series [3] (Table 2, 9.00 mg/kg, Day 11), “-.87 MGS”; in series [3] (Table 2, 18.00 mg/kg, Day 11), “-.82 MGS”. The “Average tumor weight, FINAL” value in series [3] (Table 2, 4.50 mg/kg, Day 11) is “.00 MGS”; in series [3] (Table 2, 9.00 mg/kg, Day 11), “.00 MGS”; in series [3] (Table 2, 18.00 mg/kg, Day 11) it was “.00 MGS”. Also, the “% T/C” value in series [3] (Table 2, 36.00 mg/kg, Q4D Days 1, 5, 9, Day 11) is on record as “TOX”.
In the series “Solubility”, `CCN(CC)CCC(=O)O[C@@H](C(=O)O[C@H]1C[C@@]2(O)[C@@H](OC(=O)c3ccccc3)[C@@H]3[C@]4(OC(C)=O)CO[C@@H]4C[C@H](O)[C@@]3(C)C(=O)[C@H](OC(C)=O)C(=C1C)C2(C)C)[C@@H](NC(=O)c1ccccc1)c1ccccc1` [Compound 4, Methanesulphonic acid salt of 2'(N,N-diethylaminopropionyl)taxol] came in with a solubility greater than 10000 µg/mL. In addition, the half-life in series [1] (0.02 M acetate, pH 4.5, 25° C.) was 305 h; in series [1] (0.02 M acetate, pH 5.5, 25° C.), 20.7 h.
For `CC(=O)O[C@H]1C(=O)[C@]2(C)[C@@H](OC(=O)[C@H](C)N)C[C@H]3OC[C@@]3(OC(C)=O)[C@H]2[C@H](OC(=O)c2ccccc2)[C@]2(O)C[C@H](OC(=O)[C@H](O)[C@@H](NC(=O)c3ccccc3)c3ccccc3)C(C)=C1C2(C)C` [Methanesulphonic acid salt of 7-(alanyl)taxol], in “Solubility” (read-out: Solubility), the solubility is greater than 2000 µg/mL. Besides, the half-life in series [2] (human plasma (20 μg/mL)) was 11.9 h.
For the molecule `COc1cc2c(c(OC)c1OC)-c1ccc(OC)c(=O)cc1[C@@H](NC(C)=O)CC2` [colchicine], the Effect on microtubules result in the series with microtubules is reported as “depolymerize microtubules in cells”.
Consider `CC(=O)O[C@H]1C(=O)[C@]2(C)[C@@H](OC(=O)CN(C)C)C[C@H]3OC[C@@]3(OC(C)=O)[C@H]2[C@H](OC(=O)c2ccccc2)[C@]2(O)C[C@H](OC(=O)[C@H](OC(=O)CN(C)C)[C@@H](NC(=O)c3ccccc3)c3ccccc3)C(C)=C1C2(C)C` [dimethanesulphonic acid salt of 2'7-(N,N-dimethylglycyl)taxol], for which the solubility in “Solubility” (read-out: Solubility) is greater than 10000 µg/mL.
Regarding `CCN(CC)CCC(=O)O[C@@H](C(=O)O[C@H]1C[C@@]2(O)[C@@H](OC(=O)c3ccccc3)[C@@H]3[C@]4(OC(C)=O)CO[C@@H]4C[C@H](O)[C@@]3(C)C(=O)[C@H](OC(C)=O)C(=C1C)C2(C)C)[C@@H](NC(=O)c1ccccc1)c1ccccc1` [preferred compound 1, 2'(N,N-diethylaminopropionyl)taxol], the “Ability to assemble microtubules (order)” value with microtubule assembly was “taxol >7-(N,N-dimethylglycyl)taxol(11)>2'(N,N-diethylaminopropionyl)taxol(8)>2'(N,N-dimethylglycyl)taxol(2)”. Also, in the series with B-16 melanoma cells, the “Order of effectiveness in B-16 melanoma cell proliferation study” value is “taxol>2'-(N,N-dimethylglycyl)taxol>2'-(N,N-diethylaminopropionyl)taxol>7-(N,N-dimethylglycyl)taxol”.
With `CC[C@]1(O)C[C@@H]2CN(CCc3c([nH]c4ccccc34)[C@@](C(=O)OC)(c3cc4c(cc3OC)N(C)[C@H]3[C@@](O)(C(=O)OC)[C@H](OC(C)=O)[C@]5(CC)C=CCN6CC[C@]43[C@@H]65)C2)C1` [vinblastine], the Effect on microtubules entry with microtubules is “inhibit microtubule assembly and to depolymerize steady state microtubules”.
In the case of `CC[C@]1(O)C[C@H]2CN(CCc3c([nH]c4ccccc34)[C@@](C(=O)OC)(c3cc4c(cc3OC)N(C=O)[C@H]3[C@@](O)(C(=O)OC)[C@H](OC(C)=O)[C@]5(CC)C=CCN6CC[C@]43[C@@H]65)C2)C1` [vincristine], the Effect on microtubules entry in the series with microtubules is “inhibit microtubule assembly and to depolymerize steady state microtubules”.

The record behind these values is patent US4960790A, “Derivatives of taxol, pharmaceutical compositions thereof and methods for the preparation thereof” (University of Kansas, priority 1989, dated 1990).
